The source of these data is US9108983B2, “Pyrrole compounds, a process for their preparation and pharmaceutical compositions containing them” (LES LABORATOIRES SERVIER, priority 2013, dated 2015).

As a reminder, the IC50 is the concentration that gives 50% inhibition.

Experiment [1] concerns RS4;11 leukaemia tumour line. Nature of the experiment: In vitro cytotoxicity (Microculture Tetrazolium Assay). In kind it is cell-based. Particulars: Homo sapiens, RS4;11 cells, exposed for 48 hours, cell viability, read-out: IC50 (nM) MTT RS4;11. Here is the method:
The cytotoxicity studies were carried out on the RS4;11 leukaemia tumour line.
The cells are distributed onto microplates and exposed to the test compounds for 48 hours.
The cell viability is then quantified by a colorimetric assay, the Microculture Tetrazolium Assay (Cancer Res., 1987, 47, 939-942).

Experiment [2] addresses Bcl-2 protein (histag-Bcl-2, UniProtKB P10415) (Homo sapiens (Human), UniProt P10415). Nature of the experiment: Inhibition of Bcl-2 by the fluorescence polarisation technique. The format is binding. Particulars: incubation for 2 hours, read-out: IC50 (nM) Bcl-2 FP. Here is the method: The fluorescence polarisation tests were carried out on microplates (384 wells). The Bcl-2 protein, labelled (histag-Bcl-2 such that Bcl-2 corresponds to the UniProtKB® primary accession number: P10415), at a final concentration of 2.50×10^−8 M, is mixed with a fluorescent peptide (Fluorescein-[…]), at a final concentration of 1.00×10^−8 M in a buffer solution (Hepes 10 mM, NaCl 150 mM, Tween20 0.05%, pH 7.4), in the presence or absence of increasing concentrations of test compounds. After incubation for 2 hours, the fluorescence polarisation is measured.

Structures can show the parent of a compound that is named as a salt. Where two headings read alike, the source gives them in different places. A value given as a limit tells only on which side of the number the result lay.

Sequence of Bcl-2 protein (P10415 whole entry): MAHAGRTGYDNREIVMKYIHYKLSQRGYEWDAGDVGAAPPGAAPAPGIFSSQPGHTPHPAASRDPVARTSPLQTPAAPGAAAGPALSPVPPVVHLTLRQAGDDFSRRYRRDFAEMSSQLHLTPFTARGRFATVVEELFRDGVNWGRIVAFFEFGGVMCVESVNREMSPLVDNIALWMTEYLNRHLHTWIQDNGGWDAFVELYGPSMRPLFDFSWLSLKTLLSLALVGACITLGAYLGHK

On to `COc1ccc(C(=O)N2Cc3ccccc3C[C@H]2CN2CCOCC2)c(-c2cc(C(=O)N(c3ccc(O)cc3)c3cnn(C)c3)c(C)n2C)c1` [Example 24, N-(4-Hydroxyphenyl)-5-(5-methoxy-2-{[(3S)-3-(morpholin-4-ylmethyl)-3,4-dihydroisoquinolin-2(1H)-yl]carbonyl}phenyl)-1,2-dimethyl-N-(1-methyl-1H-pyrazol-4-yl)-1H-pyrrole-3-carboxamide hydrochloride], for which the IC50 in experiment [1] (RS4-11, 48 h) was 79.1 nM; in experiment [2], 6.2 nM.
In the case of `CNCCn1c(-c2cc3c(cc2C(=O)N2Cc4ccccc4C[C@H]2C)OCO3)cc(C(=O)N(c2ccc(O)cc2)c2cnn(C)c2)c1C` [Example 26, N-(4-Hydroxyphenyl)-2-methyl-1-[2-(methylamino)ethyl]-5-(6-{[(3R)-3-methyl-3,4-dihydroisoquinolin-2(1H)-yl]carbonyl}-1,3-benzodioxol-5-yl)-N-(1-methyl-1H-pyrazol-4-yl)-1H-pyrrole-3-carboxamide hydrochloride], the IC50 in experiment [1] (RS4-11, 48 h) turned out to be 541 nM; in experiment [2], 4.1 nM.
For `Cc1c(C(=O)N(c2ccc(O)cc2)c2cnn(C)c2)cc(-c2cc3c(cc2C(=O)N2Cc4ccccc4C[C@H]2C)OCO3)n1CCN(C)C` [Example 27, 1-[2-(Dimethylamino)ethyl]-N-(4-hydroxyphenyl)-2-methyl-5-(6-{[(3R)-3-methyl-3,4-dihydroisoquinolin-2(1H)-yl]carbonyl}-1,3-benzodioxol-5-yl)-N-(1-methyl-1H-pyrazol-4-yl)-1H-pyrrole-3-carboxamide hydrochloride] the same measures were 93.4 nM and 5.2 nM.
For the molecule `Cc1c(C(=O)N(c2ccncc2)c2ccc(O)cc2)cc(-c2cc(Cl)ccc2C(=O)N2Cc3ccccc3C[C@H]2C)n1C` [Example 28, 5-(5-Chloro-2-{[(3R)-3-methyl-3,4-dihydroisoquinolin-2(1H)-yl]carbonyl}phenyl)-N-(4-hydroxyphenyl)-1,2-dimethyl-N-(pyridin-4-yl)-1H-pyrrole-3-carboxamide hydrochloride], the IC50 was found to be 95.3 nM in experiment [1] (RS4-11, 48 h) and 7.5 nM in experiment [2].
`CC1=C(C(=O)N(c2ccccc2)c2ccc(O)cc2)CC(c2cc(Cl)ccc2C(=O)N2Cc3ccccc3C[C@H]2COCCN2CCOCC2)N1C` (stereo partly drawn) [Example 29, 5-(5-Chloro-2-{[(3S)-3-{[2-(morpholin-4-yl)ethoxy]methyl}-3,4-dihydroisoquinolin-2(1H)-yl]carbonyl}phenyl)-N-(4-hydroxyphenyl)-1,2-dimethyl-N-phenyl-4H-pyrrole-3-carboxamide hydrochloride]: the IC50 in experiment [1] (RS4-11, 48 h) stood at 47.5 nM; in experiment [2] it was 6.6 nM.
For `Cc1c(C(=O)N(c2ccc(O)cc2)c2cnn(C)c2)cc(-c2cc3c(cc2C(=O)N2Cc4ccccc4C[C@H]2C)OCO3)n1CCN` [Example 30, 1-(2-Aminoethyl)-N-(4-hydroxyphenyl)-2-methyl-5-(6-{[(3R)-3-methyl-3,4-dihydroisoquinolin-2(1H)-yl]carbonyl}-1,3-benzodioxol-5-yl)-N-(1-methyl-1H-pyrazol-4-yl)-1H-pyrrole-3-carboxamide hydrochloride] the same measures were 771 nM and 4.7 nM.
Taken in the same sequence, the figures for `COc1ccc(C(=O)N2Cc3ccccc3C[C@H]2C)c(-c2cc(C(=O)N(c3ccc(O)cc3)c3cnn(C)c3)c(C)n2C)c1` [Example 31, N-(4-Hydroxyphenyl)-5-(5-methoxy-2-{[(3R)-3-methyl-3,4-dihydroisoquinolin-2(1H)-yl]carbonyl}phenyl)-1,2-dimethyl-N-(1-methyl-1H-pyrazol-4-yl)-1H-pyrrole-3-carboxamide] were 89.3 nM and 7.2 nM.
As to `Cc1c(C(=O)N(C)c2ccc(O)cc2)cc(-c2ccc(CNC(=O)Oc3ccccc3)cc2C(=O)N2Cc3ccccc3C[C@H]2C)n1C` [Example 32, Phenyl (4-{4-[(4-hydroxyphenyl)(methyl)carbamoyl]-1,5-dimethyl-1H-pyrrol-2-yl}-3-{[(3R)-3-methyl-3,4-dihydroisoquinolin-2(1H)-yl]carbonyl}benzyl)-carbamate], the IC50 in experiment [1] came out at 240 nM; in experiment [2] it was 13.3 nM.
For the molecule `Cc1c(C(=O)N(c2ccc(O)cc2)c2ccc(F)cc2)cc(-c2cc(Cl)ccc2C(=O)N2Cc3ccccc3C[C@H]2CN2CCOCC2)n1C` [Example 33, 5-(5-Chloro-2-{[(3S)-3-(morpholin-4-ylmethyl)-3,4-dihydroisoquinolin-2(1H)-yl]carbonyl}phenyl)-N-(4-fluorophenyl)-N-(4-hydroxyphenyl)-1,2-dimethyl-1H-pyrrole-3-carboxamide hydrochloride], the IC50 in experiment [1] (RS4-11, 48 h) was 57.8 nM; in experiment [2] it was 10.9 nM.
On to `Cc1c(C(=O)N(c2ccc(O)cc2)c2cccc(F)c2)cc(-c2cc(Cl)ccc2C(=O)N2Cc3ccccc3C[C@H]2CN2CCOCC2)n1C` [Example 34, 5-(5-Chloro-2-{[(3S)-3-(morpholin-4-ylmethyl)-3,4-dihydroisoquinolin-2(1H)-yl]carbonyl}phenyl)-N-(3-fluorophenyl)-N-(4-hydroxyphenyl)-1,2-dimethyl-1H-pyrrole-3-carboxamide hydrochloride], for which the IC50 is 47 nM in experiment [1] (RS4-11, 48 h) and 8.2 nM in experiment [2].
`Cc1c(C(=O)N(C)c2ccc(O)cc2)cc(-c2ccc(CNC(=O)COc3ccccc3)cc2C(=O)N2Cc3ccccc3C[C@H]2C)n1C` [Example 35, N-(4-Hydroxyphenyl)-N,1,2-trimethyl-5-(2-{[(3R)-3-methyl-3,4-dihydroisoquinolin-2(1H)-yl]carbonyl}-4-{[(phenoxyacetyl)amino]methyl}phenyl)-1H-pyrrole-3-carboxamide]: the IC50 came to 560 nM in experiment [1] (RS4-11, 48 h) and 50 nM in experiment [2].
Consider `CCNC(=O)NCc1ccc(-c2cc(C(=O)N(C)c3ccc(O)cc3)c(C)n2C)c(C(=O)N2Cc3ccccc3C[C@H]2C)c1` [Example 36, 5-(4-{[(Ethylcarbamoyl)amino]methyl}-2-{[(3R)-3-methyl-3,4-dihydroisoquinolin-2(1H)-yl]carbonyl}phenyl)-N-(4-hydroxyphenyl)-N,1,2-trimethyl-1H-pyrrole-3-carboxamide], for which the IC50 was over 600 nM in experiment [1] (RS4-11, 48 h) and 71.4 nM in experiment [2].
For `Cc1c(C(=O)N(C)c2ccc(O)cc2)cc(-c2ccc(CNC(=O)NCc3ccccc3)cc2C(=O)N2Cc3ccccc3C[C@H]2C)n1C` [Example 37, 5-(4-{[(Benzylcarbamoyl)amino]methyl}-2-{[(3R)-3-methyl-3,4-dihydroisoquinolin-2(1H)-yl]carbonyl}phenyl)-N-(4-hydroxyphenyl)-N,1,2-trimethyl-1H-pyrrole-3-carboxamide] the same measures were over 600 nM and 60.4 nM.
Take `Cc1c(C(=O)N(c2ccccc2)c2ccc(O)cc2)cc(-c2cc(Cl)ccc2C(=O)N2Cc3ccccc3C[C@H]2CO)n1C` [Example 38, 5-(5-Chloro-2-{[(3S)-3-(hydroxymethyl)-3,4-dihydroisoquinolin-2(1H)-yl]carbonyl}phenyl)-N-(4-hydroxyphenyl)-1,2-dimethyl-N-phenyl-1H-pyrrole-3-carboxamide]: the IC50 in experiment [1] (RS4-11, 48 h) was 134 nM; in experiment [2], 7.5 nM.
As to `Cc1c(C(=O)N(c2ccc(O)cc2)c2cnn(C)c2)cc(-c2cc3c(cc2C(=O)N2Cc4ccccc4C[C@H]2C)OCO3)n1C` [Example 39, N-(4-Hydroxyphenyl)-1,2-dimethyl-5-(6-{[(3R)-3-methyl-3,4-dihydroisoquinolin-2(1H)-yl]carbonyl}-1,3-benzodioxol-5-yl)-N-(1-methyl-1H-pyrazol-4-yl)-1H-pyrrole-3-carboxamide], the IC50 in experiment [1] (RS4-11, 48 h) stood at 19.7 nM; in experiment [2] it was 7.2 nM.
For `Cc1c(C(=O)N(C)c2ccc(O)cc2)cc(-c2cc(CNC(=O)Oc3ccccc3)ccc2C(=O)N2Cc3ccccc3C[C@H]2C)n1C` [Example 40, Phenyl (3-{4-[(4-hydroxyphenyl)(methyl)carbamoyl]-1,5-dimethyl-1H-pyrrol-2-yl}-4-{[(3R)-3-methyl-3,4-dihydroisoquinolin-2(1H)-yl]carbonyl}benzyl)-carbamate], the IC50 in experiment [1] was found to be 431 nM; in experiment [2], 64.4 nM.
Regarding `Cc1c(C(=O)N(c2ccc(O)cc2)c2cccc(F)c2)cc(-c2cc3c(cc2C(=O)N2Cc4ccccc4C[C@H]2C)OCO3)n1C` [Example 41, N-(3-Fluorophenyl)-N-(4-hydroxyphenyl)-1,2-dimethyl-5-(6-{[(3R)-3-methyl-3,4-dihydroisoquinolin-2(1H)-yl]carbonyl}-1,3-benzodioxol-5-yl)-1H-pyrrole-3-carboxamide], the IC50 was 22.6 nM in experiment [1] (RS4-11, 48 h) and 10 nM in experiment [2].
For `Cc1c(C(=O)N(c2ccc(O)cc2)c2cnc3c(ccn3C)c2)cc(-c2cc3c(cc2C(=O)N2Cc4ccccc4C[C@H]2C)OCO3)n1C` [Example 42, N-(4-Hydroxyphenyl)-1,2-dimethyl-5-(6-{[(3R)-3-methyl-3,4-dihydroisoquinolin-2(1H)-yl]carbonyl}-1,3-benzodioxol-5-yl)-N-(1-methyl-1H-pyrrolo[2,3-b]pyridin-5-yl)-1H-pyrrole-3-carboxamide] the same measures were 4.36 nM and 5.2 nM.
Turning to `Cc1c(C(=O)N(c2ccccc2)c2ccc(O)cc2)cc(-c2cc3c(cc2C(=O)N2Cc4ccccc4C[C@H]2C)OCO3)n1C` [Example 43, N-(4-Hydroxyphenyl)-1,2-dimethyl-5-(6-{[(3R)-3-methyl-3,4-dihydroisoquinolin-2(1H)-yl]carbonyl}-1,3-benzodioxol-5-yl)-N-phenyl-1H-pyrrole-3-carboxamide], the half-maximal inhibitory concentration (IC50) is 28.9 nM in experiment [1] (RS4-11, 48 h) and 5.1 nM in experiment [2].
